# Assay: physchem
# Assay type: physicochemical
# Protocol: "Not dissociable" means that the pKa value (logarithmic measure of the acid dissociation constant) for the reaction alcohol (D) → deprotonated alcohol (D) + H^+ of the hydroxy group in the neutral aqueous phase is more than 9.9, more preferably more than 11, most preferably more than 12, particularly preferably more than 13, for example more than 14 as measured in de-ionized water at 25° C and atmospheric pressure.
compound,measurement,value
"CC(O)CO (stereo not shown) [propane-1,2-diol]",pKa,14.9

# Reference: patent EP3725756A2, “COMPOSITIONS WITH IMPROVED UREASE-INHIBITING EFFECT COMPRISING AMINES, OR COLORANTS, AND AN ADDUCT OF THE THREE COMPOUNDS N-(N-BUTYL) THIOPHOSPHORIC ACID TRIAMIDE (NBPT), UREA, AND FORMALDEHYDE” (BASF SE, priority 2019, dated 2020)
